According to US9433572B2, “Pomegranate based skin protectant and topical application” (POM Wonderful, LLC, priority 2008, dated 2016):

System: lipid peroxyl radicals
Assay: In vivo bleaching of beta-carotene applied to the skin under UVA (lipid peroxyl radical scavenging)
Details: human forearm skin, 2 mg/cm^2, UVA
Protocol: The protective effect of pomegranate-derived skin cream from the Example 4 was determined by assessing lipid peroxyl free radical scavenging capacity on the skin. Free radicals have been implicated in many of undesirable aspects of skin aging whether due to intrinsic cause or to exposure to UV radiation. Carotenoids like beta-carotene are efficient antioxidants scavenging singlet molecular oxygen and peroxyl radicals generated in during photooxidation. The bleaching of carotenoids has been used to evaluate the auto-oxidation activity of natural products. This technique can be used to evaluate, in vivo in non-invasive way, the ability of skin cream products to scavenge lipid peroxyl radicals. Basically, the method includes measuring the bleaching of beta-carotene applied to the skin when irradiated by UVA. […] An individual skin type is determined by an Individual Topology Angle (ITA), which can be found by using the following formula: […]*)×180/3.1415. Dr. Scholl's® Round Adhesive callus pad (Schering-Plough, Kenilworth, N.J.) were placed on the volar surface of the designated forearm (pre-cleaned with alcohol) of subjects. […] A baseline chromameter reading is taken after all of the callus pads have been applied. 2 mg/cm^2 of test skin cream and the positive control are applied in duplicate to each of the 2 sites. This is accomplished by means of a pre-calibrated syringe or by weighing the appropriate test material amount in a weigh boat. The test product and positive control are allowed to set on the forearm at ambient temperature for 15 minutes. The chromameter is used to measure the b* parameter of the coloration of the treated skin. Measurements are taken on the treated and untreated sites. The beta-carotene solution is then applied by means of a finger cot to obtain a uniform, homgeous orange color on all sites (pre-treated and non-treated), excluding the two control sites. The chromameter is used to measure the b* component of each site, post-application of the beta-carotene. […] The total exposure to UVA radiation is 6.0 J/cm^2. […]

Structure (SMILES): CC1=C(/C=C/C(C)=C/C=C/C(C)=C/C=C/C=C(C)/C=C/C=C(C)/C=C/C2=C(C)CCCC2(C)C)C(C)(C)CCC1 [®-carotene, beta-carotene]
- Mean of Color Index (at 10 minutes): 42%
- Mean of Color Index (at 30 minutes): 16%
- Mean of Color Index (at 60 minutes): 0%
